{"source": "patent US12043632B2", "about": "“6-heteroaryloxy benzimidazoles and azabenzimidazoles as JAK2 inhibitors” (Ajax Therapeutics, Inc., priority 2020, dated 2024)", "data": [{"target": "T1, JAK2 (JH1domain-catalytic, Y1007F,Y1008F) kinase (Homo sapiens, UniProt O60674, Y1007F/Y1008F)", "T1 construct": "JAK2 (JH1domain-catalytic, Y1007F,Y1008F) kinase was expressed as N-terminal fusion; made in house; host or cells: transiently transfected HEK293 cells", "T1 sequence (O60674 849-1124 Y1007F/Y1008F limits assumed)": "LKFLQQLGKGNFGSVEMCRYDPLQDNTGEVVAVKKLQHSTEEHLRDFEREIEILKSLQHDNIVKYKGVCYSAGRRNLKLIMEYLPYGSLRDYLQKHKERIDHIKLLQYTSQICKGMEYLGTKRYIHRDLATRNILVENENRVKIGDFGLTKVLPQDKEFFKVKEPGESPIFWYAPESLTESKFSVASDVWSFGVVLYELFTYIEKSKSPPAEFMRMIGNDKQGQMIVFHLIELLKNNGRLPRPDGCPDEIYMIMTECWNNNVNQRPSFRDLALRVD", "assay": "JAK2 JH1 Domain Binding Assay", "settings": "qPCR readout", "units": {"Kd": "nM"}, "values": [{"molecule": "Cn1cc(C(F)(F)F)cc(Nc2nc3ncc(Oc4cnn5ccccc45)c(C#N)c3n2C)c1=O", "note": "[Example I-212, 1-methyl-2-((1-methyl-2-oxo-5-(trifluoromethyl)-1,2-dihydropyridin-3-yl)amino)-6-(pyrazolo[1,5-a]pyridin-3-yloxy)-1H-imidazo[4,5-b]pyridine-7-carbonitrile]", "Kd": "< 10"}, {"molecule": "Cn1c(Nc2cc(C(F)(F)F)cn([C@H]3C[C@@H](O)C3)c2=O)nc2ncc(Oc3cnn4ccc(F)cc34)c(Cl)c21", "note": "[Example I-213, cis-3-((7-chloro-6-((5-fluoropyrazolo[1,5-a]pyridin-3-yl)oxy)-1-methyl-1H-imidazo[4,5-b]pyridin-2-yl)amino)-1-(3-hydroxycyclobutyl)-5-(trifluoromethyl)pyridin-2(1H)-one]", "Kd": "10 to 50"}, {"molecule": "CNc1nccn2ncc(Oc3cnc4nc(Nc5cc(C(F)(F)F)cn([C@H]6C[C@@H](O)C6)c5=O)n(C)c4c3Cl)c12", "note": "[Example I-214, 3-((7-chloro-1-methyl-6-((4-(methylamino)pyrazolo[1,5-a]pyrazin-3-yl)oxy)-1H-imidazo[4,5-b]pyridin-2-yl)amino)-1-((1s,3s)-3-hydroxycyclobutyl)-5-(trifluoromethyl)pyridin-2(1H)-one]", "Kd": "< 10"}, {"molecule": "CN(C)Cc1cc(F)c(Nc2nc3ncc(Oc4cnn5ccncc45)c(Cl)c3n2C)cc1C(F)(F)F", "note": "[Example I-215, 7-chloro-N-(4-((dimethylamino)methyl)-2-fluoro-5-(trifluoromethyl)phenyl)-1-methyl-6-(pyrazolo[1,5-a]pyrazin-3-yloxy)-1H-imidazo[4,5-b]pyridin-2-amine]", "Kd": "< 10"}, {"molecule": "CNc1nccn2ncc(Oc3cnc4nc(Nc5ccc(CN6CC(C#N)C6)c(C(F)(F)F)c5)n(C)c4c3Cl)c12", "note": "[Example I-216, 1-(4-((7-chloro-1-methyl-6-((4-(methylamino)pyrazolo[1,5-a]pyrazin-3-yl)oxy)-1H-imidazo[4,5-b]pyridin-2-yl)amino)-2-(trifluoromethyl)benzyl)azetidine-3-carbonitrile]", "Kd": "10 to 50"}, {"molecule": "[2H]C([2H])([2H])n1cc(C(F)(F)F)cc(Nc2nc3ncc(Oc4cnn5ccnc(NC)c45)c(Cl)c3n2C)c1=O", "note": "[Example I-217, 3-((7-chloro-1-methyl-6-((4-(methylamino)pyrazolo[1,5-a]pyrazin-3-yl)oxy)-1H-imidazo[4,5-b]pyridin-2-yl)amino)-1-(methyl-d3)-5-(trifluoromethyl)pyridin-2(1H)-one]", "Kd": "< 10"}, {"molecule": "CN1CC(Oc2cc(Nc3nc4ncc(Oc5cnn6ccncc56)c(Cl)c4n3C)cc(C(F)(F)F)c2)C1", "note": "[Example I-218, 7-chloro-1-methyl-N-(3-((1-methylazetidin-3-yl)oxy)-5-(trifluoromethyl)phenyl)-6-(pyrazolo[1,5-a]pyrazin-3-yloxy)-1H-imidazo[4,5-b]pyridin-2-amine]", "Kd": "< 10"}, {"molecule": "CNc1nccn2ncc(Oc3cnc4nc(Nc5cc(-n6cnc(C)c6)cc(C(F)(F)F)c5)n(C)c4c3Cl)c12", "note": "[Example I-219, 7-chloro-1-methyl-N-(3-(4-methyl-1H-imidazol-1-yl)-5-(trifluoromethyl)phenyl)-6-((4-(methylamino)pyrazolo[1,5-a]pyrazin-3-yl)oxy)-1H-imidazo[4,5-b]pyridin-2-amine]", "Kd": "10 to 50"}, {"molecule": "CNc1nccn2ncc(Oc3cnc4nc(Nc5cc(N6CCN(C)CC6)cc(C(F)(F)F)c5)n(C)c4c3Cl)c12", "note": "[Example I-220, 7-chloro-1-methyl-6-((4-(methylamino)pyrazolo[1,5-a]pyrazin-3-yl)oxy)-N-(3-(4-methylpiperazin-1-yl)-5-(trifluoromethyl)phenyl)-1H-imidazo[4,5-b]pyridin-2-amine]", "Kd": "10 to 50"}, {"molecule": "CNc1nccn2ncc(Oc3cnc4nc(Nc5cc(C(F)(F)F)cn(C)c5=O)n(C)c4c3)c12", "note": "[Example I-221, 1-methyl-3-((1-methyl-6-((4-(methylamino)pyrazolo[1,5-a]pyrazin-3-yl)oxy)-1H-imidazo[4,5-b]pyridin-2-yl)amino)-5-(trifluoromethyl)pyridin-2(1H)-one]", "Kd": "10 to 50"}, {"molecule": "CNc1nccn2ncc(Oc3cnc4nc(Oc5cc(C6CC6)cn(C(C)C)c5=O)n(C)c4c3Cl)c12", "note": "[Example I-222]", "Kd": "10 to 50"}, {"molecule": "CNc1nccn2ncc(Oc3cnc4nc(Nc5cc(C(F)(F)F)c[nH]c5=O)n(C)c4c3Cl)c12", "note": "[Example I-223, 3-((7-chloro-1-methyl-6-((4-(methylamino)pyrazolo[1,5-a]pyrazin-3-yl)oxy)-1H-imidazo[4,5-b]pyridin-2-yl)amino)-5-(trifluoromethyl)pyridin-2(1H)-one]", "Kd": "< 10"}, {"molecule": "COc1nccn2ncc(Oc3cnc4nc(Nc5cc(C(F)(F)F)cn(C)c5=O)n(C)c4c3Cl)c12", "note": "[Example I-224, 3-((7-chloro-6-((4-methoxypyrazolo[1,5-a]pyrazin-3-yl)oxy)-1-methyl-1H-imidazo[4,5-b]pyridin-2-yl)amino)-1-methyl-5-(trifluoromethyl)pyridin-2(1H)-one]", "Kd": "< 10"}, {"molecule": "Cn1cc(C(F)(F)F)cc(Nc2nc3ncc(Oc4cnn5ccnc(N[C@H]6CCOC6)c45)c(Cl)c3n2C)c1=O", "note": "[Example I-225, (S)-3-((7-chloro-1-methyl-6-((4-((tetrahydrofuran-3-yl)amino)pyrazolo[1,5-a]pyrazin-3-yl)oxy)-1H-imidazo[4,5-b]pyridin-2-yl)amino)-1-methyl-5-(trifluoromethyl)pyridin-2(1H)-one]", "Kd": "< 10"}, {"molecule": "CNc1nccn2ncc(Oc3cnc4nc(Nc5cc(C(=O)N(C)C)c(F)c(C(F)(F)F)c5)n(C)c4c3Cl)c12", "note": "[Example I-226, 5-((7-chloro-1-methyl-6-((4-(methylamino)pyrazolo[1,5-a]pyrazin-3-yl)oxy)-1H-imidazo[4,5-b]pyridin-2-yl)amino)-2-fluoro-N,N-dimethyl-3-(trifluoromethyl)benzamide]", "Kd": "10 to 50"}, {"molecule": "CNc1nccn2ncc(Oc3cnc4nc(Nc5cc(OC6CCN(C)CC6)cc(C(F)(F)F)c5)n(C)c4c3Cl)c12", "note": "[Example I-227, 7-chloro-1-methyl-6-((4-(methylamino)pyrazolo[1,5-a]pyrazin-3-yl)oxy)-N-(3-((1-methylpiperidin-4-yl)oxy)-5-(trifluoromethyl)phenyl)-1H-imidazo[4,5-b]pyridin-2-amine]", "Kd": "10 to 50"}, {"molecule": "CNc1nccn2ncc(Oc3cnc4nc(Nc5cc(O[C@H]6CCN(C)C6)cc(C(F)(F)F)c5)n(C)c4c3Cl)c12", "note": "[Example I-228, (S)-7-chloro-1-methyl-6-((4-(methylamino)pyrazolo[1,5-a]pyrazin-3-yl)oxy)-N-(3-((1-methylpyrrolidin-3-yl)oxy)-5-(trifluoromethyl)phenyl)-1H-imidazo[4,5-b]pyridin-2-amine]", "Kd": "10 to 50"}, {"molecule": "CNc1nccn2ncc(Oc3cnc4nc(Nc5cc(O[C@@H]6CCN(C)C6)cc(C(F)(F)F)c5)n(C)c4c3Cl)c12", "note": "[Example I-229, (R)-7-chloro-1-methyl-6-((4-(methylamino)pyrazolo[1,5-a]pyrazin-3-yl)oxy)-N-(3-((1-methylpyrrolidin-3-yl)oxy)-5-(trifluoromethyl)phenyl)-1H-imidazo[4,5-b]pyridin-2-amine]", "Kd": "10 to 50"}, {"molecule": "CCn1c(C(C)(C)C)ncc(Nc2nc3ncc(Oc4cnn5ccnc(NC)c45)c(Cl)c3n2C)c1=O", "note": "[Example I-230, 2-(tert-butyl)-5-((7-chloro-1-methyl-6-((4-(methylamino)pyrazolo[1,5-a]pyrazin-3-yl)oxy)-1H-imidazo[4,5-b]pyridin-2-yl)amino)-3-ethylpyrimidin-4(3H)-one]", "Kd": "50 to 1000"}, {"molecule": "Cc1nc(Nc2nc3ncc(Oc4cnn5ccncc45)c(Cl)c3n2C)nc(C)c1C1CC1", "note": "[Example I-231, 7-chloro-N-(5-cyclopropyl-4,6-dimethylpyrimidin-2-yl)-1-methyl-6-(pyrazolo[1,5-a]pyrazin-3-yloxy)-1H-imidazo[4,5-b]pyridin-2-amine]", "Kd": "< 10"}, {"molecule": "Cn1c(Nc2nn3c(c2F)COC(C)(C)C3)nc2ncc(Oc3cnn4ccncc34)c(Cl)c21", "note": "[Example I-232, N-(7-chloro-1-methyl-6-(pyrazolo[1,5-a]pyrazin-3-yloxy)-1H-imidazo[4,5-b]pyridin-2-yl)-3-fluoro-6,6-dimethyl-6,7-dihydro-4H-pyrazolo[5,1-c][1,4]oxazin-2-amine]", "Kd": "< 10"}, {"molecule": "CNc1nccn2ncc(Oc3cnc4nc(Nc5cc(C(F)(F)F)c(C#N)n(C)c5=O)n(C)c4c3Cl)c12", "note": "[Example I-233, 5-((7-chloro-1-methyl-6-((4-(methylamino)pyrazolo[1,5-a]pyrazin-3-yl)oxy)-1H-imidazo[4,5-b]pyridin-2-yl)amino)-1-methyl-6-oxo-3-(trifluoromethyl)-1,6-dihydropyridine-2-carbonitrile]", "Kd": "50 to 1000"}, {"molecule": "CNc1nccn2ncc(Oc3cnc4nc(Nc5cc6c(c(C(F)(F)F)c5)C(C)(C)N(C)C6=O)n(C)c4c3Cl)c12", "note": "[Example I-234, 6-((7-chloro-1-methyl-6-((4-(methylamino)pyrazolo[1,5-a]pyrazin-3-yl)oxy)-1H-imidazo[4,5-b]pyridin-2-yl)amino)-2,3,3-trimethyl-4-(trifluoromethyl)isoindolin-1-one]", "Kd": "10 to 50"}, {"molecule": "CNc1nccn2ncc(Oc3cnc4nc(Nc5cc(C(F)(F)F)c(CN(C)C)cc5F)n(C)c4c3Cl)c12", "note": "[Example I-235, 7-chloro-N-(4-((dimethylamino)methyl)-2-fluoro-5-(trifluoromethyl)phenyl)-1-methyl-6-((4-(methylamino)pyrazolo[1,5-a]pyrazin-3-yl)oxy)-1H-imidazo[4,5-b]pyridin-2-amine]", "Kd": "10 to 50"}, {"molecule": "CNc1nccn2ncc(Oc3cnc4nc(Nc5cc(C(F)(F)F)n(C6CC7(COC7)C6)n5)n(C)c4c3Cl)c12", "note": "[Example I-236, N-(1-(2-oxaspiro[3.3]heptan-6-yl)-5-(trifluoromethyl)-1H-pyrazol-3-yl)-7-chloro-1-methyl-6-((4-(methylamino)pyrazolo[1,5-a]pyrazin-3-yl)oxy)-1H-imidazo[4,5-b]pyridin-2-amine]", "Kd": "< 10"}, {"molecule": "Cn1c(Nc2cc(N3CCC(O)CC3)cc(C(F)(F)F)c2)nc2ncc(Oc3cnn4ccncc34)c(Cl)c21", "note": "[Example I-237, 1-(3-((7-chloro-1-methyl-6-(pyrazolo[1,5-a]pyrazin-3-yloxy)-1H-imidazo[4,5-b]pyridin-2-yl)amino)-5-(trifluoromethyl)phenyl)piperidin-4-ol]", "Kd": "10 to 50"}]}]}
